# Experimental data as given in paper PMC4411097, “Pachymic Acid Inhibits Growth and Induces Apoptosis of Pancreatic Cancer In Vitro and In Vivo by Targeting ER Stress” (PLoS ONE, 2015).
# Test system: MIA PaCa-2 cells
# Experiment: DNA microarray analysis (Affymetrix Human PrimeView);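 as to Mean (MiaPaca-2 * PA): Log2-transformed RMA normalized probe set signal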
# Type: cell-based
# [1] = gene HNRNPM, probeset 11761514_at
# [2] = gene IER5, probeset 11716629_at
# [3] = gene IRAK2, probeset 11733240_at
# [4] = gene LIF, probeset 11758619_s_at
# [5] = gene LTB, probeset 11739657_a_at
# [6] = gene MALAT1, probeset 11745723_a_at
# [7] = gene MARS2, probeset 11729710_a_at
# [8] = gene MARS2, probeset 11750890_a_at
# [9] = gene MCL1, probeset 11715484_a_at
# [10] = gene NAV3, probeset 11723147_a_at
# [11] = gene NFKBIA, probeset 11745878_x_at
# [12] = gene NFKBIA, probeset 11757894_x_at
# [13] = gene PHLDA2, probeset 11744005_at
# [14] = gene PLEKHG6, probeset 11733595_x_at
# [15] = gene RPS4X, probeset 11761933_at
# [16] = gene SAT1, probeset 11743036_s_at
# [17] = gene SDC4, probeset 11717639_x_at
# [18] = gene SDC4, probeset 11749921_a_at
# [19] = gene SH3BP1, probeset 11728063_x_at
# [20] = gene SLC3A2, probeset 11733071_a_at
# [21] = gene SLC3A2, probeset 11741149_x_at
# [22] = gene SLC3A2, probeset 11746697_a_at
# [23] = gene SLC3A2, probeset 11753434_a_at
# [24] = gene SLC16A6, probeset 11735090_s_at
# [25] = gene SLC16A6, probeset 11754629_s_at
# [26] = gene SMAGP, probeset 11719864_a_at
structure (smiles),measurement,setting,value
"C=C(CC[C@@H](C(=O)O)[C@H]1[C@H](O)C[C@@]2(C)C3=C(CC[C@]12C)[C@@]1(C)CC[C@H](OC(C)=O)C(C)(C)[C@@H]1CC3)C(C)C [PA, Pachymic acid]",Fold-Change (MiaPaca-2 * PA vs. MiaPaca-2 * control),[1],1.65
same,Mean (MiaPaca-2 * PA),[1],9.69
same,Fold-Change (MiaPaca-2 * PA vs. MiaPaca-2 * control),"gene HNRNPM, probeset 11761516_x_at, MiaPaca-2",1.50
same,Mean (MiaPaca-2 * PA),"gene HNRNPM, probeset 11761516_x_at, MiaPaca-2, PA-treated",10.58
same,Fold-Change (MiaPaca-2 * PA vs. MiaPaca-2 * control),"gene HOOK1, probeset 11750347_a_at, MiaPaca-2",1.50
same,Mean (MiaPaca-2 * PA),"gene HOOK1, probeset 11750347_a_at, MiaPaca-2, PA-treated",3.97
same,Fold-Change (MiaPaca-2 * PA vs. MiaPaca-2 * control),[2],1.60
same,Mean (MiaPaca-2 * PA),[2],7.72
same,Fold-Change (MiaPaca-2 * PA vs. MiaPaca-2 * control),"gene IL12A, probeset 11756769_a_at, MiaPaca-2",1.50
same,Mean (MiaPaca-2 * PA),"gene IL12A, probeset 11756769_a_at, MiaPaca-2, PA-treated",5.04
same,Fold-Change (MiaPaca-2 * PA vs. MiaPaca-2 * control),[3],1.59
same,Mean (MiaPaca-2 * PA),[3],6.52
same,Fold-Change (MiaPaca-2 * PA vs. MiaPaca-2 * control),"gene KLHL29, probeset 11745365_at, MiaPaca-2",1.51
same,Mean (MiaPaca-2 * PA),"gene KLHL29, probeset 11745365_at, MiaPaca-2, PA-treated",5.04
same,Fold-Change (MiaPaca-2 * PA vs. MiaPaca-2 * control),"gene LIF, probeset 11726498_at",1.55
same,Mean (MiaPaca-2 * PA),"gene LIF, probeset 11726498_at",7.20
same,Fold-Change (MiaPaca-2 * PA vs. MiaPaca-2 * control),[4],1.55
same,Mean (MiaPaca-2 * PA),[4],9.50
same,Fold-Change (MiaPaca-2 * PA vs. MiaPaca-2 * control),"gene LRP8, probeset 11741376_a_at, MiaPaca-2",1.53
same,Mean (MiaPaca-2 * PA),"gene LRP8, probeset 11741376_a_at, MiaPaca-2, PA-treated",7.95
same,Fold-Change (MiaPaca-2 * PA vs. MiaPaca-2 * control),[5],1.54
same,Mean (MiaPaca-2 * PA),[5],6.97
same,Fold-Change (MiaPaca-2 * PA vs. MiaPaca-2 * control),"gene MAFF, probeset 11726611_x_at, MiaPaca-2",1.50
same,Mean (MiaPaca-2 * PA),"gene MAFF, probeset 11726611_x_at, MiaPaca-2, PA-treated",6.99
same,Fold-Change (MiaPaca-2 * PA vs. MiaPaca-2 * control),[6],1.55
same,Mean (MiaPaca-2 * PA),[6],9.40
same,Fold-Change (MiaPaca-2 * PA vs. MiaPaca-2 * control),[7],1.55
same,Mean (MiaPaca-2 * PA),[7],6.32
same,Fold-Change (MiaPaca-2 * PA vs. MiaPaca-2 * control),[8],1.61
same,Mean (MiaPaca-2 * PA),[8],6.51
same,Fold-Change (MiaPaca-2 * PA vs. MiaPaca-2 * control),[9],1.60
same,Mean (MiaPaca-2 * PA),[9],8.79
same,Fold-Change (MiaPaca-2 * PA vs. MiaPaca-2 * control),"gene MMP1, probeset 11741897_a_at, MiaPaca-2",1.52
same,Mean (MiaPaca-2 * PA),"gene MMP1, probeset 11741897_a_at, MiaPaca-2, PA-treated",5.59
same,Fold-Change (MiaPaca-2 * PA vs. MiaPaca-2 * control),[10],1.54
same,Mean (MiaPaca-2 * PA),[10],5.19
same,Fold-Change (MiaPaca-2 * PA vs. MiaPaca-2 * control),"gene NFKBIA, probeset 11744000_a_at",1.65
same,Fold-Change (MiaPaca-2 * PA vs. MiaPaca-2 * control),[11],1.67
same,Mean (MiaPaca-2 * PA),[11],11.53
same,Fold-Change (MiaPaca-2 * PA vs. MiaPaca-2 * control),[12],1.56
same,Mean (MiaPaca-2 * PA),[12],11.80
same,Fold-Change (MiaPaca-2 * PA vs. MiaPaca-2 * control),"gene PABPC1L, probeset 11721609_a_at, MiaPaca-2",1.51
same,Mean (MiaPaca-2 * PA),"gene PABPC1L, probeset 11721609_a_at, MiaPaca-2, PA-treated",9.20
same,Fold-Change (MiaPaca-2 * PA vs. MiaPaca-2 * control),[13],1.57
same,Mean (MiaPaca-2 * PA),[13],8.15
same,Fold-Change (MiaPaca-2 * PA vs. MiaPaca-2 * control),"gene PHLDB2, probeset 11737041_a_at, MiaPaca-2",1.50
same,Mean (MiaPaca-2 * PA),"gene PHLDB2, probeset 11737041_a_at, MiaPaca-2, PA-treated",11.63
same,Fold-Change (MiaPaca-2 * PA vs. MiaPaca-2 * control),[14],1.55
same,Mean (MiaPaca-2 * PA),[14],5.78
same,Fold-Change (MiaPaca-2 * PA vs. MiaPaca-2 * control),"gene PNP, probeset 11718400_a_at, MiaPaca-2",1.50
same,Mean (MiaPaca-2 * PA),"gene PNP, probeset 11718400_a_at, MiaPaca-2, PA-treated",10.30
same,Fold-Change (MiaPaca-2 * PA vs. MiaPaca-2 * control),"gene RBM3, probeset 11760141_s_at, MiaPaca-2",1.52
same,Mean (MiaPaca-2 * PA),"gene RBM3, probeset 11760141_s_at, MiaPaca-2, PA-treated",5.58
same,Fold-Change (MiaPaca-2 * PA vs. MiaPaca-2 * control),"gene RCAN1, probeset 11763514_x_at, MiaPaca-2",1.51
same,Mean (MiaPaca-2 * PA),"gene RCAN1, probeset 11763514_x_at, MiaPaca-2, PA-treated",7.84
same,Fold-Change (MiaPaca-2 * PA vs. MiaPaca-2 * control),"gene RPL37A, probeset 11759821_at, MiaPaca-2",1.51
same,Mean (MiaPaca-2 * PA),"gene RPL37A, probeset 11759821_at, MiaPaca-2, PA-treated",7.62
same,Fold-Change (MiaPaca-2 * PA vs. MiaPaca-2 * control),[15],1.59
same,Mean (MiaPaca-2 * PA),[15],5.23
same,Fold-Change (MiaPaca-2 * PA vs. MiaPaca-2 * control),[16],1.56
same,Mean (MiaPaca-2 * PA),[16],10.67
same,Fold-Change (MiaPaca-2 * PA vs. MiaPaca-2 * control),[17],1.61
same,Mean (MiaPaca-2 * PA),[17],10.95
same,Fold-Change (MiaPaca-2 * PA vs. MiaPaca-2 * control),[18],1.53
same,Mean (MiaPaca-2 * PA),[18],8.87
same,Fold-Change (MiaPaca-2 * PA vs. MiaPaca-2 * control),[19],1.54
same,Mean (MiaPaca-2 * PA),[19],7.60
same,Fold-Change (MiaPaca-2 * PA vs. MiaPaca-2 * control),[20],1.55
same,Mean (MiaPaca-2 * PA),[20],8.64
same,Fold-Change (MiaPaca-2 * PA vs. MiaPaca-2 * control),[21],1.56
same,Mean (MiaPaca-2 * PA),[21],8.54
same,Fold-Change (MiaPaca-2 * PA vs. MiaPaca-2 * control),[22],1.58
same,Mean (MiaPaca-2 * PA),[22],8.64
same,Fold-Change (MiaPaca-2 * PA vs. MiaPaca-2 * control),[23],1.53
same,Mean (MiaPaca-2 * PA),[23],7.98
same,Fold-Change (MiaPaca-2 * PA vs. MiaPaca-2 * control),"gene SLC3A2, probeset 11754529_x_at, MiaPaca-2",1.52
same,Mean (MiaPaca-2 * PA),"gene SLC3A2, probeset 11754529_x_at, MiaPaca-2, PA-treated",9.50
same,Fold-Change (MiaPaca-2 * PA vs. MiaPaca-2 * control),[24],1.58
same,Mean (MiaPaca-2 * PA),[24],5.46
same,Fold-Change (MiaPaca-2 * PA vs. MiaPaca-2 * control),[25],1.55
same,Mean (MiaPaca-2 * PA),[25],6.21
same,Fold-Change (MiaPaca-2 * PA vs. MiaPaca-2 * control),[26],1.55
same,Mean (MiaPaca-2 * PA),[26],9.61
same,Fold-Change (MiaPaca-2 * PA vs. MiaPaca-2 * control),"gene SMURF2, probeset 11748382_a_at, MiaPaca-2",1.50
same,Mean (MiaPaca-2 * PA),"gene SMURF2, probeset 11748382_a_at, MiaPaca-2, PA-treated",8.51
same,Fold-Change (MiaPaca-2 * PA vs. MiaPaca-2 * control),"gene SNHG12, probeset 11753858_a_at, MiaPaca-2",1.50
same,Mean (MiaPaca-2 * PA),"gene SNHG12, probeset 11753858_a_at, MiaPaca-2, PA-treated",10.82
same,Fold-Change (MiaPaca-2 * PA vs. MiaPaca-2 * control),"gene SPRY4, probeset 11736669_s_at, MiaPaca-2",1.50
